Source: PubChem BioAssay (NCI)
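Step 1: Grow cells in 96-well plates. Step 2: Expose to compound for 48 hours at 5 concentrations. Step 3: Interpolate endpoints linearly; if unreached, use highest concentration. The concentration for full growth arrest is given as TGI.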

Assays:
Test in all cases: NCI anticancer screen, dose series, 48 h
ACHN renal = tested on: ACHN renal
SR leukemia = tested on: SR leukemia
T-47D breast = tested on: T-47D breast
BT-549 breast = tested on: BT-549 breast
MDA-MB-231 breast = tested on: MDA-MB-231 breast
MDA-MB-435 = tested on: MDA-MB-435
DU-145 prostate = tested on: DU-145 prostate
MDA-N = tested on: MDA-N
HS 578T breast = tested on: HS 578T breast

Row | Structure (SMILES) | TGI (ACHN renal) [µM] | TGI (SR leukemia) [µM] | TGI (T-47D breast) [µM] | TGI (BT-549 breast) [µM] | TGI (MDA-MB-231 breast) [µM] | TGI (MDA-MB-435) [µM] | TGI (DU-145 prostate) [µM] | TGI (MDA-N) [µM] | TGI (HS 578T breast) [µM]
1 | O=C(CC/C=C(/CS(=O)(=O)c1ccccc1)S(=O)(=O)c1ccccc1)c1ccccc1 | > 100 | > 100 |  |  |  |  |  |  | 
2 | CC(=O)NCCC1CN(C(=O)/C=C\C#C[Si](C)(C)C)c2ccccc21 (stereo not drawn) | > 100 |  | 86.4 | > 100 | 67.3 | > 100 | > 100 | > 100 | > 100
3 | O=C1CC(=O)c2c(O)cc(O)c(c2O)-c2c(ccc(O)c2O)C2=CC(=O)c3c(O)cc(O)c(c3O2)-c2c1ccc(O)c2O (tested in a mixture with another compound) |  | > 50 | > 50 | > 50 | > 50 | > 50 | > 50 | > 50 | > 50
